Reference: ChEMBL document CHEMBL3585240, “Synthesis and biological evaluation of caracasine acid derivatives” (Bioorg Med Chem, 2015)
Activity calls are given as the source filed them. The rule behind the calls is not given here.

How the values were obtained:
PC-3 [1] = test: Cytotoxicity against human PC3 cells assessed as growth inhibition after 72 hrs by MTT assay; type: functional, cell-based; details: PC-3, 72 h
MCF7 [2] = test: Cytotoxicity against human MCF7 cells assessed as growth inhibition after 72 hrs by MTT assay; type: functional, cell-based; details: MCF7, 72 h
Leishmania mexicana = test: Antileishmanial activity against promastigote stage of Leishmania mexicana Bel21 assessed as growth inhibition after 48 hrs by MTT assay; type: functional, organism-based; details: Bel21, 48 h
[3] = Cytotoxicity against human skin fibroblasts assessed as growth inhibition after 72 hrs by MTT assay; details: Skin fibroblast
PC-3 [4] = test: Selectivity index, ratio of IC50 for human skin fibroblasts to IC50 for human PC3 cells
MCF7 [5] = test: Selectivity index, ratio of IC50 for human skin fibroblasts to IC50 for human MCF7 cells
[6] = Selectivity index, ratio of IC50 for human skin fibroblasts to IC50 for promastigote stage of Leishmania mexicana Bel21
Bacillus cereus [7] = test: Antibacterial activity against Bacillus cereus ATCC 14579 assessed as growth inhibition at 2 mg/ml after 24 hrs by disc agar diffusion method; type: functional; details: for zone of inhibition at 2000 µg/mL: ATCC 14579, 24 h, read-out: DIZ
Staphylococcus aureus [8] = test: Antibacterial activity against Staphylococcus aureus ATCC 25923 assessed as growth inhibition at 2 mg/ml after 24 hrs by disc agar diffusion method; type: functional; details: for zone of inhibition at 2000 µg/mL: ATCC 25923, 24 h, read-out: DIZ
Escherichia coli [9] = test: Antibacterial activity against Escherichia coli ATCC 35218 assessed as growth inhibition at 2 mg/ml after 24 hrs by disc agar diffusion method; type: functional; details: for zone of inhibition at 2000 µg/mL: ATCC 35218, 24 h, read-out: DIZ
Pseudomonas aeruginosa [10] = test: Antibacterial activity against Pseudomonas aeruginosa ATCC 27853 assessed as growth inhibition at 2 mg/ml after 24 hrs by disc agar diffusion method; type: functional; details: for zone of inhibition at 2000 µg/mL: ATCC 27853, 24 h, read-out: DIZ
Trypanosoma cruzi = test: Antitrypanosomal activity against epimastigote stage of Trypanosoma cruzi CL Brener assessed as growth inhibition after 5 days by MTT assay; type: functional; details: 120 h
[11] = Selectivity index, ratio of IC50 for human skin fibroblasts to IC50 for epimastigote stage of Trypanosoma cruzi CL Brener
Bacillus cereus [12] = test: Antibacterial activity against Bacillus cereus ATCC 14579 assessed as growth inhibition at 30 ug after 24 hrs by disc agar diffusion method; type: functional; details: ATCC 14579, 24 h, read-out: DIZ
Staphylococcus aureus [13] = test: Antibacterial activity against Staphylococcus aureus ATCC 25923 assessed as growth inhibition at 30 ug after 24 hrs by disc agar diffusion method; type: functional; details: ATCC 25923, 24 h, read-out: DIZ
Escherichia coli [14] = test: Antibacterial activity against Escherichia coli ATCC 35218 assessed as growth inhibition at 30 ug after 24 hrs by disc agar diffusion method; type: functional; details: ATCC 35218, 24 h, read-out: DIZ
Pseudomonas aeruginosa [15] = test: Antibacterial activity against Pseudomonas aeruginosa ATCC 27853 assessed as growth inhibition at 30 ug after 24 hrs by disc agar diffusion method; type: functional; details: ATCC 27853, 24 h, read-out: DIZ

SMILES	IC50 (PC-3 [1])	IC50 (MCF7 [2])	IC50 (Leishmania mexicana)	IC50 [3]	Ratio IC50 (PC-3 [4])	Ratio IC50 (MCF7 [5])	Ratio IC50 [6]	zone of inhibition at 2000 µg/mL (Bacillus cereus [7])	zone of inhibition at 2000 µg/mL (Staphylococcus aureus [8])	zone of inhibition at 2000 µg/mL (Escherichia coli [9])	zone of inhibition at 2000 µg/mL (Pseudomonas aeruginosa [10])	IC50 (Trypanosoma cruzi)	Ratio IC50 [11]	growth inhibition (GI) (Staphylococcus aureus [8])	growth inhibition (GI) (Pseudomonas aeruginosa [10])	growth inhibition (GI) (Escherichia coli [9])	also measured
C=C1C(O)[C@@]23CC[C@H](C(=C)C)[C@@](C)(CCC(=O)O)[C@@H]2CC[C@H]1C3 (stereo partly drawn)	137 µM	86.8 µM	> 30 µM	207 µM	1.5	2.4	<6.9	15 mm	12 mm	12 mm	20 mm						
C=C1C(=O)[C@@]23CC[C@H](C(C)(O)CO)[C@@](C)(CCC(=O)O)[C@@H]2CC[C@H]1C3 (stereo partly drawn)	21.9 µM	46.3 µM	42.8 µM	25.4 µM	1.2	0.5	0.6	20 mm		15 mm		42.6 µM	0.6	inactive	inactive		
C=C1C(=O)[C@@]23CC[C@H](C4(C)CO4)[C@@](C)(CCC(=O)O)[C@@H]2CC[C@H]1C3 (stereo partly drawn)	6.4 µM	22.6 µM		24.7 µM	3.9	1.1		20 mm	25 mm	18 mm	18 mm						
C=C(C)[C@H]1CC[C@@]23C[C@H](CC[C@H]2[C@]1(C)CCC(=O)O)C(CC#N)C3=O (stereo partly drawn)	> 138 µM	144 µM	> 44 µM	51.9 µM		0.5	<1.2							inactive	inactive	inactive	growth inhibition (GI) (Bacillus cereus [7]): inactive
C=C1C(=O)[C@@]23CC[C@H](C(=C)C)[C@@](C)(CCC(=O)OC4CCCCC4)[C@@H]2CC[C@H]1C3	1.9 µM	2.1 µM	1.2 µM	< 3.9 µM	2.1	1.9	<3.3	12 mm	30 mm	28 mm	30 mm	5.5 µM	<0.7				
C=C(C)[C@H]1CC[C@@]23C[C@H](CC[C@H]2[C@]1(C)CCC(=O)OC)C(COC)C3=O (stereo partly drawn)								12 mm	13 mm	15 mm	15 mm						
NCC[C@H](O)C(=O)N[C@@H]1C[C@H](N)[C@@H](O[C@H]2O[C@H](CN)[C@@H](O)[C@H](O)[C@H]2O)[C@H](O)[C@H]1O[C@H]1O[C@H](CO)[C@@H](O)[C@H](N)[C@H]1O [AMIKACIN]																	zone of inhibition at 30 µg/disc (Bacillus cereus [12]): 32 mm; zone of inhibition at 30 µg/disc (Staphylococcus aureus [13]): 16 mm; zone of inhibition at 30 µg/disc (Escherichia coli [14]): 22 mm; zone of inhibition at 30 µg/disc (Pseudomonas aeruginosa [15]): 16 mm
C=C1C(=O)[C@@]23CC[C@H](C(=C)C)[C@@](C)(CCC(=O)OCCCC)[C@@H]2CC[C@H]1C3	4.7 µM	5.6 µM	1.2 µM	7 µM	1.5	1.3	5.8					4.2 µM	1.7	inactive	inactive	inactive	growth inhibition (GI) (Bacillus cereus [7]): inactive
C=C1C(=O)[C@@]23CC[C@H](C(=C)C)[C@@](C)(CCC(=O)O)[C@@H]2CC[C@H]1C3	7.9 µM	15.8 µM	30.8 µM	39.7 µM	5	2.5	1.3	22 mm	24 mm	22 mm	30 mm	22.3 µM	1.8				
C=C(C)[C@H]1CC[C@@]23C[C@H](CC[C@H]2[C@]1(C)CCC(=O)O)C(CSCc1ccccc1)C3=O (stereo partly drawn)			22.1 µM	42.7 µM			1.9	20 mm	22 mm	25 mm	15 mm	39.3 µM	1.1				
C=C(C)[C@H]1CC[C@@]23C[C@H](CC[C@H]2[C@]1(C)CCC(=O)OC)C(CC(C#N)P(=O)(OCC)OCC)C3=O (stereo partly drawn)														inactive	inactive	inactive	growth inhibition (GI) (Bacillus cereus [7]): inactive
C=C(C)[C@H]1CC[C@@]23C[C@H](CC[C@H]2[C@]1(C)CCC(=O)O)C(COCC)C3=O (stereo partly drawn)								10 mm	12 mm	14 mm	15 mm						
C=C1C(=O)[C@@]23CC[C@H](C(=C)C)[C@@](C)(CCC(=O)OCc4ccccc4)[C@@H]2CC[C@H]1C3	5.5 µM	3.7 µM	1 µM	3.1 µM	0.6	0.8	3.1	24 mm	15 mm	22 mm	15 mm	4.1 µM	0.8				
C=C1C(=O)[C@@]23CC[C@H](C(=C)C)[C@@](C)(CCC(=O)OC(C)C)[C@@H]2CC[C@H]1C3	5.4 µM	5.4 µM	1.5 µM	7.5 µM	1.4	1.4	5		15 mm		15 mm	4.1 µM	1.8			inactive	growth inhibition (GI) (Bacillus cereus [7]): inactive
C=C(C)[C@H]1CC[C@@]23C[C@H](CC[C@H]2[C@]1(C)CCC(=O)O)C(C)C3=O (stereo partly drawn)		110 µM	> 47 µM	> 157 µM		>1.4		20 mm			18 mm			inactive		inactive	
C=C1C(=O)[C@@]23CC[C@H](C(=C)C)[C@@](C)(CCC(=O)OCC)[C@@H]2CC[C@H]1C3	4.4 µM	5.1 µM	1.6 µM	3.7 µM	0.8	0.7	2.3					2.7 µM	1.4	inactive	inactive	inactive	growth inhibition (GI) (Bacillus cereus [7]): inactive
C=C1C(=O)[C@@]23CC[C@H](C(=C)C)[C@@](C)(CCC(=O)OCCC)[C@@H]2CC[C@H]1C3	4.2 µM	6.6 µM	1.5 µM	6.2 µM	1.5	0.9	4.1	20 mm	12 mm			3.1 µM	2		inactive	inactive	
C=C1C(=O)[C@@]23CC[C@H](C(=C)C)[C@@](C)(CCC(=O)OC)[C@@H]2CC[C@H]1C3	3.6 µM	11.2 µM	3.4 µM	11.3 µM	3.1	1	3.3	22 mm	12 mm	15 mm	15 mm	16.5 µM	0.7				
C=C1C(=O)[C@@]23CC[C@H](C(=C)C)[C@@](C)(CCC(=O)NC4CCCCC4)[C@@H]2CC[C@H]1C3	3.9 µM	10 µM	2 µM	12 µM	3.1	1.2	6	15 mm	15 mm	16 mm	12 mm	2.8 µM	4.3				
